US10428083B2, “Heterocyclylmethyl-thienouracile as antagonists of the adenosine-A2B-receptor” (BAYER PHARMA AKTIENGESELLSCHAFT, priority 2015, dated 2019)

Biological target: human adenosine A2b receptor (Homo sapiens (Human), UniProt P29275)
Test: Cellular in vitro reporter gene test for A2b receptor activity (CHO-K1, CRE-luciferase, NECA stimulation)
Type: cell-based
Conditions: recombinant CHO-K1 cell line, CRE-luciferase reporter, antagonism of EC50 concentration of NECA; in some cases means of several determinations, rounded to two significant figures; read-out: A2b receptor IC50
Method in brief: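 CHO-K1 cells with CRE-driven luciferase; antagonists co-incubated with NECA at its EC50, determined in a pre-experiment on each test day. Luciferase read by luminescence 3 h after NECA addition.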

Chain of human adenosine A2b receptor (P29275 whole entry): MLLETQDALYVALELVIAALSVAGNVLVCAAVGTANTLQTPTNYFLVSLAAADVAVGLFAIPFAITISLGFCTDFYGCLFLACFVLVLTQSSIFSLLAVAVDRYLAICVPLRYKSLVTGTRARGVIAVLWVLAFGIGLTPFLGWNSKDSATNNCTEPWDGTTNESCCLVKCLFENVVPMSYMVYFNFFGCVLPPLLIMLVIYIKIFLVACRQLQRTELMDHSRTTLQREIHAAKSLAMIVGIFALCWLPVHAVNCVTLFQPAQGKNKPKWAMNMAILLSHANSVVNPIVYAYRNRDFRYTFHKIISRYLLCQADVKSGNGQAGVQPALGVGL

Row | SMILES | IC50
1 | COCCn1c(=O)n(C(C)C)c(=O)c2c(C)c(Cn3nc[nH]c3=O)sc21 [Example 254, 3-Isopropyl-1-(2-methoxyethyl)-5-methyl-6-[(5-oxo-4,5-dihydro-1H-1,2,4-triazol-1-yl)methyl]thieno[2,3-d]pyrimidine-2,4(1H,3H)-dione] | 34 nM
2 | CCn1c(=O)c2c(C)c(CN3CCNC3=NC#N)sc2n(CCC(F)(F)F)c1=O [Example 255, [1-{[3-Ethyl-5-methyl-2,4-dioxo-1-(3,3,3-trifluoropropyl)-1,2,3,4-tetrahydrothieno[2,3-d]pyrimidin-6-yl]methyl}imidazolidin-2-ylidene]cyanamide] | 13 nM
3 | Cc1c(CN2CCNC2=NC#N)sc2c1c(=O)n(C(C)C)c(=O)n2CCC(F)(F)F [Example 262, [1-{[3-Isopropyl-5-methyl-2,4-dioxo-1-(3,3,3-trifluoropropyl)-1,2,3,4-tetrahydrothieno[2,3-d]pyrimidin-6-yl]methyl}imidazolidin-2-ylidene]cyanamide] | 2.3 nM
4 | COCCn1c(=O)n(C(C)C)c(=O)c2c(C)c(CN3CCNC3=NC#N)sc21 [Example 263, [1-{[3-Isoprpy-1-(2-methoxyethyl)-5-methyl-2,4-dioxo-1,2,3,4-tetrahydrothieno[2,3-d]pyrimidin-6-yl]methyl}imidazolidin-2-ylidene]cyanamide] | 5.3 nM
5 | COCCn1c(=O)n(CC(F)(F)F)c(=O)c2c(C)c(CN3CCNC3=NC#N)sc21 [Example 268, [1-{[1-(2-Methoxyethyl)-5-methyl-2,4-dioxo-3-(2,2,2-trifluoroethyl)-1,2,3,4-tetrahydrothieno[2,3-d]pyrimidin-6-yl]methyl}imidazolidin-2-ylidene]cyanamide] | 12 nM
6 | CCn1c(=O)c2c(C)c(CN3CCNC(=O)C3=O)sc2n(CCOC2CC2)c1=O [Example 270, 1-[2-(Cyclopropyloxy)ethyl]-6-[(2,3-dioxopiperazin-1-yl)methyl]-3-ethyl-5-methylthieno[2,3-d]pyrimidine-2,4(1H,3H)-dione] | 38 nM
7 | CCOCCn1c(=O)n(CC(C)C)c(=O)c2c(C)c(CN3CCNC(=O)C3=O)sc21 [Example 271, 6-[(2,3-Dioxopiperazin-1-yl)methyl]-1-(2-ethoxyethyl)-3-isobutyl-5-methylthieno[2,3-d]pyrimidine-2,4(1H,3H)-dione] | 47 nM
8 | Cc1c(CN2CCNC(=O)C2=O)sc2c1c(=O)n(CC(C)(C)C)c(=O)n2CCC(F)(F)F [Example 272, 3-(2,2-Dimethylpropyl)-6-[(2,3-dioxopiperazin-1-yl)methyl]-5-methyl-1-(3,3,3-trifluoropropyl)thieno[2,3-d]pyrimidine-2,4(1H,3H)-dione] | 10 nM
9 | Cc1c(CN2CCNC(=O)C2=O)sc2c1c(=O)n(CC(C)(C)C)c(=O)n2CCCF [Example 273, 3-(2,2-Dimethylpropyl)-6-[(2,3-dioxopiperazin-1-yl)methyl]-1-(3-fluoropropyl)-5-methylthieno[2,3-d]pyrimidine-2,4(1H,3H)-dione] | 19 nM
10 | COCCn1c(=O)n(CC(C)(C)C)c(=O)c2c(C)c(CN3CCNC(=O)C3=O)sc21 [Example 274, 3-(2,2-Dimethylpropyl)-6-[(2,3-dioxopiperazin-1-yl)methyl]-1-(2-methoxyethyl)-5-methylthieno[2,3-d]pyrimidine-2,4(1H,3H)-dione] | 24 nM
11 | Cc1c(CN2CCNC(=O)C2=O)sc2c1c(=O)n(CC(F)F)c(=O)n2C [Example 275, 3-(2,2-Difluoroethyl)-6-[(2,3-dioxopiperazin-1-yl)methyl]-1,5-dimethylthieno[2,3-d]pyrimidine-2,4(1H,3H)-dione] | 76 nM
12 | COCCn1c(=O)c2c(C)c(CN3CCNC(=O)C3=O)sc2n(CCC(F)(F)F)c1=O [Example 276, 6-[(2,3-Dioxopiperazin-1-yl)methyl]-3-(2-methoxyethyl)-5-methyl-1-(3,3,3-trifluoropropyl)thieno[2,3-d]pyrimidine-2,4(1H,3H)-dione] | 9.9 nM
13 | COCCn1c(=O)c2c(C)c(CN3CCNC(=O)C3=O)sc2n(CCCF)c1=O [Example 277, 6-[(2,3-Dioxopiperazin-1-yl)methyl]-1-(3-fluoropropyl)-3-(2-methoxyethyl)-5-methylthieno[2,3-d]pyrimidine-2,4(1H,3H)-dione] | 68 nM
14 | COC(C)(C)Cn1c(=O)c2c(C)c(CN3CCNC(=O)C3=O)sc2n(CCC(F)(F)F)c1=O [Example 279, 6-[(2,3-Dioxopiperazin-1-yl)methyl]-3-(2-methoxy-2-methylpropyl)-5-methyl-1-(3,3,3-trifluoropropyl)thieno[2,3-d]pyrimidine-2,4(1H,3H)-dione] | 20 nM
15 | COC(C)(C)Cn1c(=O)c2c(C)c(CN3CCNC(=O)C3=O)sc2n(CCCF)c1=O [Example 280, 6-[(2,3-Dioxopiperazin-1-yl)methyl]-1-(3-fluoropropyl)-3-(2-methoxy-2-methylpropyl)-5-methylthieno[2,3-d]pyrimidine-2,4(1H,3H)-dione] | 82 nM
16 | COCCn1c(=O)n(CC(C)(C)OC)c(=O)c2c(C)c(CN3CCNC(=O)C3=O)sc21 [Example 281, 6-[(2,3-Dioxopiperazin-1-yl)methyl]-1-(2-methoxyethyl)-3-(2-methoxy-2-methylpropyl)-5-methylthieno[2,3-d]pyrimidine-2,4(1H,3H)-dione] | 46 nM

Row | SMILES | IC50
17 | Cc1c(Cn2[nH]ccc2=O)sc2c1c(=O)n(CC(F)(F)F)c(=O)n2CCC(F)(F)F [Example 282, 5-Methyl-6-[(5-oxo-2,5-dihydro-1H-pyrazol-1-yl)methyl]-3-(2,2,2-trifluoroethyl)-1-(3,3,3-trifluoropropyl)thieno[2,3-d]pyrimidine-2,4(1H,3H)-dione] | 30 nM
18 | COCCn1c(=O)n(CC(F)(F)F)c(=O)c2c(C)c(Cn3[nH]ccc3=O)sc21 [Example 283, 1-(2-Methoxyethyl)-5-methyl-6-[(5-oxo-2,5-dihydro-1H-pyrazol-1-yl)methyl]-3-(2,2,2-trifluoroethyl)thieno[2,3-d]pyrimidine-2,4(1H,3H)-dione] | 79 nM
19 | COCCn1c(=O)c2c(C)c(Cn3[nH]ccc3=O)sc2n(CCC(F)(F)F)c1=O [Example 287, 3-(2-Methoxyethyl)-5-methyl-6-[(5-oxo-2,5-dihydro-1H-pyrazol-1-yl)methyl]-1-(3,3,3-trifluoropropyl)thieno[2,3-d]pyrimidine-2,4(1H,3H)-dione] | 63 nM
20 | COCCn1c(=O)c2c(C)c(Cn3[nH]ccc3=O)sc2n(CCOC)c1=O [Example 288, 1,3-Bis(2-methoxyethyl)-5-methyl-6-[(5-oxo-2,5-dihydro-1H-pyrazol-1-yl)methyl]thieno[2,3-d]pyrimidine-2,4(1H,3H)-dione] | 140 nM
21 | CCn1c(=O)c2c(C)c(CN3CCNC3=S)sc2n(CF)c1=O [Example 292, 3-Ethyl-1-(fluoromethyl)-5-methyl-6-[(2-thioxoimidazolidin-1-yl)methyl]thieno[2,3-d]pyrimidine-2,4(1H,3H)-dione] | 8.3 nM
22 | CCn1c(=O)c2c(C)c(CN3CCNC3=S)sc2n(CCOC2CCCC2)c1=O [Example 293, 1-[2-(Cyclopentyloxy)ethyl]-3-ethyl-5-methyl-6-[(2-thioxoimidazolidin-1-yl)methyl]thieno[2,3-d]pyrimidine-2,4(1H,3H)-dione] | 120 nM
23 | CCSCCn1c(=O)n(CC)c(=O)c2c(C)c(CN3CCNC3=S)sc21 [Example 294, 3-Ethyl-1-[2-(ethylsulphanyl)ethyl]-5-methyl-6-[(2-thioxoimidazolidin-1-yl)methyl]thieno[2,3-d]pyrimidine-2,4(1H,3H)-dione] | 20 nM
24 | CCn1c(=O)c2c(C)c(CN3CCNC3=S)sc2n(CCS(C)(=O)=O)c1=O [Example 295, 3-Ethyl-5-methyl-1-[2-(methylsulphonyl)ethyl]-6-[(2-thioxoimidazolidin-1-yl)methyl]thieno[2,3-d]pyrimidine-2,4(1H,3H)-dione] | 220 nM
25 | CCn1c(=O)c2c(C)c(CN3CCNC3=S)sc2n(CCCOC)c1=O [Example 296, 3-Ethyl-1-(3-methoxypropyl)-5-methyl-6-[(2-thioxoimidazolidin-1-yl)methyl]thieno[2,3-d]pyrimidine-2,4(1H,3H)-dione] | 16 nM
26 | Cc1c(CN2CCNC2=S)sc2c1c(=O)n(C(C)C)c(=O)n2C [Example 297, 3-Isopropyl-1,5-dimethyl-6-[(2-thioxoimidazolidin-1-yl)methyl]thieno[2,3-d]pyrimidine-2,4(1H,3H)-dione] | 17 nM
27 | Cc1c(CN2CCNC2=S)sc2c1c(=O)n(C(C)C)c(=O)n2CCCF [Example 298, 1-(3-Fluoropropyl)-3-isopropyl-5-methyl-6-[(2-thioxoimidazolidin-1-yl)methyl]thieno[2,3-d]pyrimidine-2,4(1H,3H)-dione] | 2.4 nM
28 | CCOCCn1c(=O)c2c(C)c(CN3CCNC3=S)sc2n(CCC(F)(F)F)c1=O [Example 301, 3-(2-Ethoxyethyl)-5-methyl-6-[(2-thioxoimidazolidin-1-yl)methyl]-1-(3,3,3-trifluoropropyl)thieno[2,3-d]pyrimidine-2,4(1H,3H)-dione] | 6.5 nM
29 | CCOCCn1c(=O)c2c(C)c(CN3CCNC3=S)sc2n(CCOC)c1=O [Example 302, 3-(2-Ethoxyethyl)-1-(2-methoxyethyl)-5-methyl-6-[(2-thioxoimidazolidin-1-yl)methyl]thieno[2,3-d]pyrimidine-2,4(1H,3H)-dione] | 14 nM
30 | Cc1c(CN2CCN(C(C)C)C2=S)sc2c1c(=O)n(CC(C)C)c(=O)n2CCCF [Example 304, 1-(3-Fluoropropyl)-3-isobutyl-6-[(3-isopropyl-2-thioxoimidazolidin-1-yl)methyl]-5-methylthieno[2,3-d]pyrimidine-2,4(1H,3H)-dione] | 73 nM
31 | Cc1c(CN2CCN(C(C)C)C2=S)sc2c1c(=O)n(CC(F)(F)F)c(=O)n2C [Example 305, 6-[(3-Isopropyl-2-thioxoimidazolidin-1-yl)methyl]-1,5-dimethyl-3-(2,2,2-trifluoroethyl)thieno[2,3-d]pyrimidine-2,4(1H,3H)-dione] | 140 nM
